Data published in patent US6448392B1, “Lipid derivatives of antiviral nucleosides: liposomal incorporation and method of use” (Chimerix, Inc., priority 1985, dated 2002).
Where “and” joins values, the source holds several entries; their conditions need not be identical. Equal values may be shown once. Where a name gives a salt, the structure may show the parent alone. Read-outs that look alike come from different tables or passages of the source.

How the values were obtained:
[1] = test system: HIV (LAV-1); test: HIV plaque formation in HT4-6C cells (CD4+ HeLa cells) infected with LAV-1; format: cell-based
Protocol: In this experiment the compound of Example 7 (1-O- stearoylglycero-rac-3-phospho-5′-(3′-deoxy, 3′-azido)thymidine) was incorporated into liposomes containing 10 mole percent of the liponucleotide as indicated in Example 8. This material was diluted with RPMI medium to the desired concentration and added to HT4-6C cells (CD4+ HeLa cells) obtained from Dr. Bruce Chesbro of the Rocky Mountain National Laboratories (Hamilton, Mont.) which had been infected with LAV-1 as noted earlier in this example. After a 3 day incubation at 37° C., the cells were washed with PBS, fixed and stained with crystal violet and the plaques were counted.
PalmitoylAZT was incorporated into liposomes as noted in Example 8 and incubated with LAV-1 infected HT4-6C cells as noted in Examples 10 and 11. 0.8 uM palmitoylAZT inhibited plaque formation by 25% (134 plaques versus 176 in the untreated control).

[2] = test system: HSV-1; test: Herpes simplex virus plaque reduction assay, HSV-1 in Wi-38 cells; format: cell-based, Herpes simplex virus type 1; settings: for IC50: HSV-1 infected Wi-38 cells, plaque reduction, read-out: concentration which produces 50% inhibition
Protocol: Wi-38 cells were obtained from American Type Culture Collection (Rockville, Md. 20852) and grown in Dulbecco's minimum essential medium (DMEM) with 10% fetal calf serum (FCS). The cells were grown in 250 cm square bottles until reaching confluence.
Herpes simplex virus (HSV) type 1 (HSV-1) and type 2 (HSV-2) were obtained from the American Type Culture Collection. Both virus stocks were prepared in Wi-38 cells; extensive cytopathic effects (CPD) were observed when the stock virus was harvested by a single freezing and thawing and the cell debris was clarified by low speed centrifugation (2000 rpm). Supernatant fluids containing the virus were aliquoted into small vials and stored at −80° C. Both HSV-1 and HSV-2 stocks were titered in Wi-38 cells before use in the experiments.
The plaque reduction assay was used to measure the antiviral effect of phosphatidylacyclovir or free ACV. Wi-38 cells were trypsinized with 0.25% trypsin for 5 min. The cells were harvested and centrifuged to remove residual trypsin and the cell pellet was resuspended in DMEM with 10% FCS. The Wi-38 cells were plated in a 96 well plate ([…] cells/well) for one hour. The infected cells were then treated with phosphatidylacyclovir or ACV. The antiviral agents were prepared in stock solutions which were then diluted two-fold with 2% FBS in DMEM containing 0.5% methylcellulose. 100 μl of each diluted antiviral agent was added into each well of HSV infected cells.
The control and drug-treated cell cultures were incubated in a 37° C. incubator with 5% carbon dioxide for 24 hours. […] The dye was rinsed off with tap water and the plate was dried and plaques were counted. The antiviral effect of ACV or phosphatidylacyclovir was determined by measurement of plaque reduction as shown in the example below.

[3] = test system: HIV (LAV-1 strain); format: cell-based; settings: for inhibition of HIV p24 production: Experiment H747-1b, CEM cells; for EC50: CEM wild type
Protocol: 6.42 micromoles of dioleoylphosphatidylcholine, 3.85 micromoles of cholesterol, 1.28 micromoles of dioleoylphosphatidylglycerol and 1.28 micromoles of dimyristoylphosphatidyl-azidothymidine were mixed in a sterile 2.0 ml glass vial and the solvent was removed in vacuo in a rotary evaporator. In some experiments, dimyristoylphosphatidylazidothymidine was replaced with either dimyristoylphosphatidyldideoxythymidine, dimyristoylphosphatidyldideoxycytidine or azidothymidine diphosphate dimyristoylglycerol; control liposomes were prepared by omitting the antiviral liponucleotide. The dried film was placed under high vacuum overnight at room temperature to remove traces of solvent. The lipid film was hydrated at 30° C. with 0.3 ml of sterile 10 mM sodium acetate buffer (pH 5.0) containing isotonic dextrose and the ampule was sealed. The mixture was vortexed intermittently for 10 minutes followed by sonication using a Heat Systems Ultrasonics sonicator with a cup horn generator (431B) at output control setting #9 for 90 to 120 minutes at which time the sample is clarified. This sonicated preparation was diluted with sterile RPMI buffer and added to the tissue culture wells at the concentration indicated.
(§1) The human T lymphoblastoid cell line, CCRG-CEM (hereafter referred to as CEM), was grown in RPMI 1640 medium containing 100 U/ml penicillin G, 100 ug/ml streptomycin, 2 mM glutamine and 10% fetal bovine serum (Hyclone Laboratories, Logan, Utah). Cells were infected with the LAV-1 strain (L. Montagnier, Paris, France) at a multiplicity of infection of one tissue culture 50% infectious dose (TCID50)/cell for 60 minutes at 37° C. in medium containing […]. CEM cells were infected in suspension at 6×10^4 cells/ml, washed three times by centrifugation and resuspension and then distributed in 96-well plates at 6×10^4 cells/well before addition of medium containing the liposomal antiretroviral liponucleotide drugs.
(§2) Antiviral activity was assayed after 3 days by the inhibition of the production of HIV p24 (gag) antigen in the cell free culture medium of the infected cells exposed to different concentrations of drug; p24 antigen was measured by ELISA (Abbott Laboratories, Chicago, Ill.) according to the manufacturer's instructions. The data are the average of two determinations and are expressed as percentage of a control incubated in the absence of drugs.

[4] = test system: HIV in CEM (wild type) cells; test: Experiment I276: antiviral protection of CEM cells by preincubation, p24 in supernates; format: cell-based; settings: 3 day preincubation; 24 and 48 hours in normal media after removal of drug
Protocol: The cells were then washed twice with PBS, and fresh RPMI media added. Each group of cells was then divided into three batches. One batch was immediately infected with HIV, as noted above; after washing away unattached HIV, the sample was allowed to incubate in media alone for 3 days. Two other batches were allowed to incubate in media alone for either 24 or 48 hours to allow any intracellular antiviral agent present to become depleted. Then they were infected with HIV, the cells washed free of virus, and fresh RPMI media added. After 3 days of further incubation, the supernates of all batches were tested for the presence of p24 protein.
CEM cells were subjected to HIV infection without preincubation; drug was added following HIV infection as indicated, and the cells were incubated for 3 days.
After a further incubation for 3 days, p24 was measured.

[5] = test system: HIV in CEM tk- cells; test: Inhibition of HIV p24 production in thymidine kinase deficient CEM tk- cells; format: cell-based; settings: Experiment H637-1b, AZT 0.2 to 100 uM
Protocol: as §1, §2
In this experiment, CEM cells were replaced with mutant cells (provided by Dr. Dennis Carson, Scripps Clinic, San Diego, Calif.) which lack the thymidine kinase enzyme (CEM tk−).

[6] = 10 uM liponucleotide in liposomes, 3 day incubation
[7] = Experiment H533-1, liposomes containing 10 mole percent liponucleotide, p24 after 3 days, read-out: amount of drug required to reduce virus production by 50% (E.D. 50)
[8] = Experiment H805-1, liposomes, p24, read-out: ED50 (the source's name)

CCCCCCCCCCCCCCCCCC(=O)OCC(O)COP(=O)(O)OC[C@H]1O[C@@H](n2cc(C)c(=O)[nH]c2=O)C[C@@H]1N=[N+]=[N-] (mixture of isomers) [Example 7, 1-O-stearoylglycero-rac-3-phospho-5′-(3′-azido-3′-deoxy)thymidine]
% of Untreated Control ([1]; 0.0316 uM): 78%
Plaques, Average ([1]; 0.0316 uM): 43
% of Untreated Control ([1]; 0.100 uM): 71%
Plaques, Average ([1]; 0.100 uM): 39
% of Untreated Control ([1]; 0.316 uM): 58%
Plaques, Average ([1]; 0.316 uM): 32
% of Untreated Control ([1]; 1.0 uM): 29%
Plaques, Average ([1]; 1.0 uM): 16
% of Untreated Control ([1]; 3.16 uM): 13%
Plaques, Average ([1]; 3.16 uM): 7
% of Untreated Control [1, 6]: 2%
Plaques, Average [1, 6]: 1
IC50 ([1]; HT4-6C cells infected with LAV-1, liposomes, read-out: concentration required to produce 50% inhibition of HIV plaque formation): ~350 nM

CCCCCCCCCCCCCC(=O)OCC(COP(=O)(O)OCCOCn1cnc2c(=O)[nH]c(N)nc21)OC(=O)CCCCCCCCCCCCC (stereo in doubt) [PhosphatidylACV, dimyristoylphosphatidylacycloguanosine]
IC50 [2]: 2000 nM
% no Drug ([2]; PhosphatidylACV 0.84 uM): 91%
plaques (determinations 1 and 2) ([2]; PhosphatidylACV 0.84 uM): 24 and 26
plaques, mean ([2]; PhosphatidylACV 0.84 uM): 25
% no Drug ([2]; PhosphatidylACV 1.67 uM): 67%
plaques (determinations 1 and 2) ([2]; PhosphatidylACV 1.67 uM): 17 and 20
plaques, mean ([2]; PhosphatidylACV 1.67 uM): 18.5
% no Drug ([2]; PhosphatidylACV 3.3 uM): 40%
plaques (determinations 1 and 2) ([2]; PhosphatidylACV 3.3 uM): 10 and 12
plaques, mean ([2]; PhosphatidylACV 3.3 uM): 11
% no Drug ([2]; PhosphatidylACV 6.7 uM): 27%
plaques (determinations 1 and 2) ([2]; PhosphatidylACV 6.7 uM): 6 and 9
plaques, mean ([2]; PhosphatidylACV 6.7 uM): 7.5
% no Drug ([2]; PhosphatidylACV 13.4 uM): 18%
plaques (determinations 1 and 2) ([2]; PhosphatidylACV 13.4 uM): 4 and 6
plaques, mean ([2]; PhosphatidylACV 13.4 uM): 5
% no Drug ([2]; PhosphatidylACV 27 uM): 9%
plaques (determinations 1 and 2) ([2]; PhosphatidylACV 27 uM): 2 and 3
plaques, mean ([2]; PhosphatidylACV 27 uM): 2.5
% no Drug ([2]; PhosphatidylACV 54 uM): 0%
plaques (determinations 1 and 2) ([2]; PhosphatidylACV 54 uM): 0
plaques, mean ([2]; PhosphatidylACV 54 uM): 0
% no Drug ([2]; PhosphatidylACV 107 uM): 0%
plaques (determinations 1 and 2) ([2]; PhosphatidylACV 107 uM): 0
plaques, mean ([2]; PhosphatidylACV 107 uM): 0

Nc1nc2c(ncn2COCCO)c(=O)[nH]1 [Acyclovir, Acycloguanosine, reference compound]
% no Drug ([2]; Acyclovir 0.155 uM): 73%
plaques (determinations 1 and 2) ([2]; Acyclovir 0.155 uM): 18 and 22
plaques, mean ([2]; Acyclovir 0.155 uM): 20
% no Drug ([2]; Acyclovir 0.31 uM): 65%
plaques (determinations 1 and 2) ([2]; Acyclovir 0.31 uM): 17 and 19
plaques, mean ([2]; Acyclovir 0.31 uM): 20
% no Drug ([2]; Acyclovir 0.625 uM): 26%
plaques (determinations 1 and 2) ([2]; Acyclovir 0.625 uM): 8 and 6
plaques, mean ([2]; Acyclovir 0.625 uM): 7
% no Drug ([2]; Acyclovir 1.25 uM): 13%
plaques (determinations 1 and 2) ([2]; Acyclovir 1.25 uM): 4 and 3
plaques, mean ([2]; Acyclovir 1.25 uM): 3.5
% no Drug ([2]; Acyclovir 2.5 uM): 0%
plaques (determinations 1 and 2) ([2]; Acyclovir 2.5 uM): 0
plaques, mean ([2]; Acyclovir 2.5 uM): 0
% no Drug ([2]; Acyclovir 5 uM): 0%
plaques (determinations 1 and 2) ([2]; Acyclovir 5 uM): 0
plaques, mean ([2]; Acyclovir 5 uM): 0
% no Drug ([2]; Acyclovir 10 uM): 0%
plaques (determinations 1 and 2) ([2]; Acyclovir 10 uM): 0
plaques, mean ([2]; Acyclovir 10 uM): 0
IC50 ([2]; Human alphaherpesvirus 1): 400 nM

Cc1cn([C@H]2C[C@H](N=[N+]=[N-])[C@@H](CO)O2)c(=O)[nH]c1=O [Example N1, 3′-azido-3′-deoxythymidine, reference compound]
effectiveness in reducing p24, free AZT versus liponucleotide ([3]; Experiment H747-1a, low concentrations below 0.1 uM): more effective than the liponucleotide
protection from HIV after removal of the drug [4]: failed to protect the cells from HIV infection
effect on p24 production [5]: completely without effect

Cc1cn([C@H]2CC[C@@H](CO)O2)c(=O)[nH]c1=O [Example N2, 2′,3′-dideoxythymidine, reference compound]
inhibition of HIV p24 production [3]: weak inhibitor of HIV p24 production

CCCCCCCCCCCCCC(=O)OC[C@@H](COP(=O)(O)OC[C@@H]1CC[C@H](n2cc(C)c(=O)[nH]c2=O)O1)OC(=O)CCCCCCCCCCCCC [LN2, 1,2-Dimyristoylglycerophospho-5′-(3′-deoxy)thymidine, Monosodium Salt]
EC50 [3, 7]: 30000 nM
inhibition of HIV p24 production [3]: somewhat more effective than the free nucleoside
EC50 [3, 8]: 20000 nM
effect on p24 production [5]: capable of reducing p24 production

CCCCCCCCCCCCCC(=O)OCC(COP(=O)(O)OCC1CCC(n2ccc(N)nc2=O)O1)OC(=O)CCCCCCCCCCCCC (stereo not drawn) [LN3, 1,2-dimyristoylglycerophospho-5′-(3′-dideoxy)cytidine]
EC50 [3, 8]: 1100 nM

CCCCCCCCCCCCCC(=O)OCC(COP(=O)(O)OP(=O)(O)OCC1OC(n2cc(C)c(=O)[nH]c2=O)CC1N=[N+]=[N-])OC(=O)CCCCCCCCCCCCC (stereo not drawn) [LN4, azidothymidine diphosphate dimylristoylglycerol]
EC50 [3, 7]: 8000 nM

CCCCCCCCCCCCCCCC(=O)OC[C@H]1O[C@@H](n2cc(C)c(=O)[nH]c2=O)C[C@@H]1N=[N+]=[N-] [PalmitoylAZT, 5′-palmitoyl(3′-deoxy-3′-azido)thymidine]
plaques ([1]; 0.8 uM in liposomes, 176 in the untreated control): 134
inhibition of plaque formation ([1]; 0.8 uM in liposomes, LAV-1 infected HT4-6C cells): 25%
